Results reported in patent publication US7786098B2, “Fluoroalkoxycombretastatin derivatives, method for producing the same and use thereof” (Zhejiang Dade Pharmaceutical Group Co. Ltd., priority 2006, dated 2010).
Read-outs that look alike come from different tables or passages of the source.

Experiments:
[1] = system: tubulin; conditions: U.S. Pat. No. 5,561,122; WO 9935150; cited from earlier work
[2] = system: Bel-7402 human liver cancer cell; assay: In vitro antitumor activity evaluation (SRB/MTT, 72 hours), Bel-7402; format: cell-based; conditions: Logit model
Method: (§1) The tumor cell cultured in vitro being administrated with fluoroalkoxycombretastatin for 72 hours, the MTT and SRB assays was used to evaluate its inhibition of tumor proliferation.
(§2) Cell groups: H460 human lung cancer cell, SGC7901: human stomach cancer cell, HT-29 human colon cancer cell, Bel-7402 human liver cancer cell.
(§3) Experiment design: cells were warm-cultured with the compounds in different concentrations (100, 10, 1, 0.1, 0.01, 0.001 μM) for 72 hours. SRB assay was used to evaluate the inhibition degree of the compounds to cell proliferation. The inhibition rate was calculated, and IC50 was calculated by using Logit model according to the inhibition rate. And the antitumor activity of compounds in vitro was compared.
(§4) The inhibition rate was expressed using the following equation: Inhibition rate (%)=[(average OD value of control group−average OD value of experimental group)/average OD value of control group]×100%.

[3] = system: human umbilical vein endothelial cells (HUVEC); assay: In vitro neovascular inhibition evaluation; format: cell-based; conditions: same method as Example 15 (72 hours)
Method: as §1, §3, §4
Anti-angiogenesis effects of fluoroalkoxycombretastatins were assessed in human umbilical vein endothelial cells (HUVEC) using the same method in Example 15.

[4] = system: SGC7901 human stomach cancer cell; assay: In vitro antitumor activity evaluation (SRB/MTT, 72 hours), SGC-7901; format: cell-based; conditions: Logit model
Method: as §1, §2, §3, §4

[5] = system: HT-29 human colon cancer cell; assay: In vitro antitumor activity evaluation (SRB/MTT, 72 hours), HT-29; format: cell-based; conditions: Logit model, read-out: IC50 Colon cancer HT29
Method: as §1, §2, §3, §4

[6] = system: tumor; conditions: within 4 to 6 hours after the treatment of CA-4, cancer patients; cited from earlier work
[7] = system: H460 human lung cancer cell; assay: In vitro antitumor activity evaluation (SRB/MTT, 72 hours), H460; format: cell-based; conditions: Logit model, read-out: IC50 Non-small cell lung cancer H460
Method: as §1, §2, §3, §4

[8] = Homo sapiens, Bel-7402, SRB assay
[9] = Homo sapiens, SGC-7901, SRB assay
[10] = Homo sapiens, NCI-H460, SRB assay

Question: For COc1ccc(/C=C\c2cc(OC)c(OC)c(OC)c2)c(O)c1O [CA-1, combretastatin A-1], which “inhibition of tubulin polymerization” value [1] is on record?
Answer: The value was “exceptionally strong inhibitors of tubulin polymerization”.

Question: For COc1ccc(/C=C\c2cc(OC)c(OC)c(OC)c2)cc1O [CA-4, combretastatin A-4, reference compound], which IC50 ([2]; SRB assay) is on record?
Answer: The IC50 was 750 nM.

Question: What about the IC50 [3] of the same compound?
Answer: The IC50 was 3 nM.

Question: What about the “inhibition of tubulin polymerization” value [1] of the same compound?
Answer: Its value is “exceptionally strong inhibitors of tubulin polymerization”.

Question: And the IC50 ([4]; SRB assay)?
Answer: Its IC50 is 10 nM.

Question: And the IC50 ([5]; SRB assay)?
Answer: Its IC50 is 2380 nM.

Question: And the blood flow [6]?
Answer: The blood flow was “decreased obviously”.

Question: And the tumor cells died [6]?
Answer: The tumor cells died was “more than 95%”.

Question: What about the IC50 ([7]; SRB assay) of the same compound?
Answer: Its IC50 is 27 nM.

Question: For COc1cc(/C=C\c2ccc(OC(F)F)c(O)c2)cc(OC)c1OC [DD8011, (Z)-1-(3,4,5-trimethoxyphenyl)-2-(3′-hydroxy-4′-difluoromethoxyphenyl)-ethene], which IC50 [2, 8] is on record?
Answer: Its IC50 is 920 nM.

Question: And the IC50 ([3]; Homo sapiens, HUVEC)?
Answer: The IC50 was 2 nM.

Question: What about the IC50 [4, 9] of the same compound?
Answer: The IC50 was 22 nM.

Question: And the IC50 ([5]; Homo sapiens, HT-29, SRB assay)?
Answer: Its IC50 is 3000 nM.

Question: And the IC50 [7, 10]?
Answer: Its IC50 is 44 nM.

Question: With COc1cc(/C=C\c2ccc(OC(F)F)c(N)c2)cc(OC)c1OC [DD8021, (Z)-1-(3,4,5-trimethoxyphenyl)-2-(3′-amino-4′-difluoromethoxyphenyl)-ethene] as the compound, how does the IC50 [2, 8] read?
Answer: Its IC50 is 830 nM.

Question: And the IC50 ([3]; Homo sapiens, HUVEC)?
Answer: The IC50 was 2 nM.

Question: What about the IC50 [4, 9] of the same compound?
Answer: The IC50 was 18 nM.

Question: What about the IC50 ([5]; Homo sapiens, HT-29, SRB assay) of the same compound?
Answer: The IC50 was 2250 nM.

Question: And the IC50 [7, 10]?
Answer: The IC50 was 36 nM.

Question: What does the source list for COc1cc(/C=C\c2ccc(OCC(F)(F)F)c(O)c2)cc(OC)c1OC [DD8031, (Z)-1-(3,4,5-trimethoxyphenyl)-2-(3′-hydroxy-4′-trifluoroethoxyphenyl)-ethene]?
Answer: IC50 [2, 8]: 300 nM; IC50 ([3]; Homo sapiens, HUVEC): 1 nM; IC50 [4, 9]: 5 nM; IC50 ([5]; Homo sapiens, HT-29, SRB assay): 79 nM; IC50 [7, 10]: 5 nM

Question: What does the source list for COc1cc(/C=C\c2ccc(OCC(F)(F)F)c(N)c2)cc(OC)c1OC [DD8041, (Z)-1-(3,4,5-trimethoxyphenyl)-2-(3′-amino-4′-trifluoroethoxyphenyl)-ethene]?
Answer: IC50 [2, 8]: 280 nM; IC50 ([3]; Homo sapiens, HUVEC): 1 nM; IC50 [4, 9]: 3 nM; IC50 ([5]; Homo sapiens, HT-29, SRB assay): 68 nM; IC50 [7, 10]: 5 nM
